# Assay results published in ChEMBL document CHEMBL2331101, “Aldosterone synthase inhibitors” (ACS Med Chem Lett, 2013).
# Key:
# Assay type in all cases: cell-based
# [1] = target: T1, CYP11B1 (Homo sapiens, UniProt P15538); experiment: (§1) Inhibition of human Cyp11B1 transfected in chinese hamster V79MZ cells using deoxycorticosterone as substrate incubated for 60 mins prior to substrate addition measured after 25 mins by HPLC analysis; details: human, Chinese hamster V79MZ cells transfected with human CYP11B1, probe deoxycorticosterone
# T1 sequence (P15538 whole entry): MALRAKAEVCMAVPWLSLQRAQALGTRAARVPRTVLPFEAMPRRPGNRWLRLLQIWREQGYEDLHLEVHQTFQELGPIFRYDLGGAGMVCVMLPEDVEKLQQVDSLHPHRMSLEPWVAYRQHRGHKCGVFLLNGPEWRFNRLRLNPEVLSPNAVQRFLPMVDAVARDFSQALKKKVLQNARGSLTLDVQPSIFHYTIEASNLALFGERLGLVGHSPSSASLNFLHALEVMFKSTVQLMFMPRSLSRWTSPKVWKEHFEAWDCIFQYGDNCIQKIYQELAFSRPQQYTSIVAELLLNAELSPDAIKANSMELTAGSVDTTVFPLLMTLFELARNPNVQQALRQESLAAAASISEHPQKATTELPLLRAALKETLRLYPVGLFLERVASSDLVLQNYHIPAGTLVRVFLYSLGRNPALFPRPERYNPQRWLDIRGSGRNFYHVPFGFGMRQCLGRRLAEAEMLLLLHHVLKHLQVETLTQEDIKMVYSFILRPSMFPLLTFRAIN
# [2] = target: T2, Cytochrome P450 11B2, mitochondrial (Homo sapiens, UniProt P19099); experiment: Inhibition of human Cyp11B2 transfected in chinese hamster V79MZ cells using deoxycorticosterone as substrate incubated for 60 mins prior to substrate addition measured after 50 mins by HPLC analysis
# T2 sequence (P19099 whole entry): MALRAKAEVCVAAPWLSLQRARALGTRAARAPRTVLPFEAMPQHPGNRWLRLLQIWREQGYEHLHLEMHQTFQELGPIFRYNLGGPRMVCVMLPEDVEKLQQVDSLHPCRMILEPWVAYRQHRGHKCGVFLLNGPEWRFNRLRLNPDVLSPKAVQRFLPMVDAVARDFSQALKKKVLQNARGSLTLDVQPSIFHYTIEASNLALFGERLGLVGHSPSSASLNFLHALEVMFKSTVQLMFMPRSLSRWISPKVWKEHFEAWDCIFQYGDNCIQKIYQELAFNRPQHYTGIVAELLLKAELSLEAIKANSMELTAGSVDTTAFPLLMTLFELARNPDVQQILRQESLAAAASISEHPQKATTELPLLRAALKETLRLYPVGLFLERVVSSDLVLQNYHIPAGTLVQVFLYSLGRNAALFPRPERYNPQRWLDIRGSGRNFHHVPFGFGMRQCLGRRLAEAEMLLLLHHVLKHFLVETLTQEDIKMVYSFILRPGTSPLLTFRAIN
# [3] = target: T3, Cytochrome P450 11B1, mitochondrial (Homo sapiens, UniProt P15538); experiment: as §1
# T3 sequence (P15538 whole entry): T1 sequence (P15538 whole entry)
IC50 at 25 min [1],IC50 [2],IC50 [3],Compound
> 10000 nM,–,–,Cc1nnc2n1-c1cc(Cl)c(-c3cncc4ccccc34)cc1CC2
> 10000 nM,–,–,COc1c(C)cncc1-c1cc2c(cc1F)-n1c(C)nnc1CC2
–,5 nM,108 nM,COC(C)(C)c1cncc(-c2ccc3c(c2)CCc2nnc(C)n2-3)c1
> 30000 nM,–,–,Cc1nnc2n1-c1c(Cl)cc(-c3cnccc3C(F)(F)F)cc1CC2
–,5 nM,407 nM,Cc1nnc2n1-c1ccc(-c3cncc4ccccc34)cc1CC2
